From PubChem BioAssay AID1918953 (Molecular Pharmacology Branch, DTP, NCI, 2023)
Where “and” joins values, the source holds several entries; their conditions need not be identical. Identical values can stand only once.

Tested on: MDA-MB-231 complex spheroid viability
Assay: Anticancer human tumor MDA-MB-231/ATCC cell line growth inhibition;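 further: drug exposure lasted 7 days starting on day 3 of spheroid growth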
Conditions: for viability, T/C: stronger effect = lower value
Outline: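 Complex spheroids of tumor cells with HUVEC and human MSCs, exposed to iadademstat combined with other agents. Each agent tested in half-log steps from near clinical Cmax (else 10 microM top), DMSO ≤0.25%.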

[1] = curve of first compound, second compound 0.1 µM
[2] = curve of first compound, second compound 0.316 µM
[3] = curve of first compound, second compound 1 µM
[4] = curve of first compound, second compound 3.16 µM
[5] = curve of first compound, second compound 10 µM
[6] = second compound 0.1 µM, first compound 0.00949 µM
[7] = second compound 0.1 µM, first compound 0.03 µM
[8] = second compound 0.1 µM, first compound 0.0949 µM
[9] = second compound 0.1 µM, first compound 0.3 µM
[10] = second compound 0.1 µM, first compound 0.949 µM
[11] = second compound 0.1 µM, first compound 3 µM
[12] = second compound 0.316 µM, first compound 0.00949 µM
[13] = second compound 0.316 µM, first compound 0.03 µM
[14] = second compound 0.316 µM, first compound 0.0949 µM
[15] = second compound 0.316 µM, first compound 0.3 µM
[16] = second compound 0.316 µM, first compound 0.949 µM
[17] = second compound 0.316 µM, first compound 3 µM
[18] = second compound 1 µM, first compound 0.00949 µM
[19] = second compound 1 µM, first compound 0.03 µM
[20] = second compound 1 µM, first compound 0.0949 µM
[21] = second compound 1 µM, first compound 0.3 µM
[22] = second compound 1 µM, first compound 0.949 µM
[23] = second compound 1 µM, first compound 3 µM
[24] = second compound 3.16 µM, first compound 0.00949 µM
[25] = second compound 3.16 µM, first compound 0.03 µM
[26] = second compound 3.16 µM, first compound 0.0949 µM
[27] = second compound 3.16 µM, first compound 0.3 µM
[28] = second compound 3.16 µM, first compound 0.949 µM
[29] = second compound 3.16 µM, first compound 3 µM
[30] = second compound 10 µM, first compound 0.00949 µM
[31] = second compound 10 µM, first compound 0.03 µM
[32] = second compound 10 µM, first compound 0.0949 µM
[33] = second compound 10 µM, first compound 0.3 µM
[34] = second compound 10 µM, first compound 0.949 µM
[35] = second compound 10 µM, first compound 3 µM

`Nc1ccccc1NC(=O)c1ccc(CNC(=O)OCc2cccnc2)cc1` + NC1CCC(NC2CC2c2ccccc2)CC1 showed an IC50 [1] of 62.2 nM, an IC50 [2] of 65.8 nM and an IC50 [3] of 50.7 nM. It also gave an IC50 [4] of 38.5 nM, an IC50 [5] of 26.3 nM and a viability, T/C [6] of 89.4%. For the same compound, the viability, T/C [7] was 61%, the viability, T/C [8] was 39% and the viability, T/C [9] was 31.5%. It also gave a viability, T/C [10] of 15.9%, a viability, T/C [11] of 3.58% and a viability, T/C [12] of 86.2%. It also gave a viability, T/C [13] of 64.6%, a viability, T/C [14] of 39.6% and a viability, T/C [15] of 29.4%. For the same compound, the viability, T/C [16] was 16.3%, the viability, T/C [17] was 2.82% and the viability, T/C [18] was 85%. It also gave a viability, T/C [19] of 58%, a viability, T/C [20] of 37% and a viability, T/C [21] of 26.4%. It also gave a viability, T/C [22] of 14.3%, a viability, T/C [23] of 2.97% and a viability, T/C [24] of 72.7%. The viability, T/C [25] was 54.1%, the viability, T/C [26] was 35.7% and the viability, T/C [27] was 20.6%. For the same compound, the viability, T/C [28] was 10.1%, the viability, T/C [29] was 1.4% and the viability, T/C [30] was 63.2%. It also gave a viability, T/C [31] of 47.7%, a viability, T/C [32] of 32.2% and a viability, T/C [33] of 15.1%. The viability, T/C [34] was 7.15% and the viability, T/C [35] was 0.5%.

`Nc1ccccc1NC(=O)c1ccc(CNC(=O)OCc2cccnc2)cc1` + NC1CC1c1ccc(-c2cccc(O)c2)cc1 showed an IC50 [1] of 13.3 nM, an IC50 [2] of 10.5 nM and an IC50 [3] of less than 9.49 nM. It also gave an IC50 [4] of less than 9.49 nM, an IC50 [5] of less than 9.49 nM and a viability, T/C [6] of 56.6%. The viability, T/C [7] was 34.9%, the viability, T/C [8] was 22.7% and the viability, T/C [9] was 12.2%. It also gave a viability, T/C [10] of 2.07%, a viability, T/C [11] of 0.17% and a viability, T/C [12] of 52.7%. The viability, T/C [13] was 31.5%, the viability, T/C [14] was 21% and the viability, T/C [15] was 10.6%. For the same compound, the viability, T/C [16] was 1.85%, the viability, T/C [17] was 0.16% and the viability, T/C [18] was 43.3%. The viability, T/C [19] was 27%, the viability, T/C [20] was 21.7% and the viability, T/C [21] was 9.99%. The viability, T/C [22] was 1.67%, the viability, T/C [23] was 0.15% and the viability, T/C [24] was 46.3%. The viability, T/C [25] was 31.6%, the viability, T/C [26] was 21.3% and the viability, T/C [27] was 13.3%. The viability, T/C [28] was 1.34%, the viability, T/C [29] was 0.13% and the viability, T/C [30] was 36.3%. For the same compound, the viability, T/C [31] was 22.1%, the viability, T/C [32] was 12% and the viability, T/C [33] was 7.05%. For the same compound, the viability, T/C [34] was 0.48% and the viability, T/C [35] was 0.24%.

With `CC1(C)CCC(CN2CCN(c3ccc(C(=O)NS(=O)(=O)c4ccc(NCC5CCOCC5)c([N+](=O)[O-])c4)c(Oc4cnc5[nH]ccc5c4)c3)CC2)=C(c2ccc(Cl)cc2)C1` the viability, T/C (compound 0.0316 µM) was 109%, the viability, T/C (compound 0.1 µM) was 105% and 107% and the viability, T/C (compound 0.316 µM) was 100% and 114%. The viability, T/C (compound 1 µM) was 103% and 123%, the viability, T/C (compound 3.16 µM) was 102% and 83.3% and the IC50 (curve of compound) was 7610 nM and 5060 nM.

With `COc1cc(Nc2ncc3c(n2)-c2ccc(Cl)cc2C(c2c(F)cccc2OC)=NC3)ccc1C(=O)O` the viability, T/C (compound 0.00316 µM) was 78.5% and 52.8%, the viability, T/C (compound 0.01 µM) was 60.9% and 55.1% and the viability, T/C (compound 0.0316 µM) was 56.1% and 50.4%. The viability, T/C (compound 0.1 µM) was 57% and 42.6%, the viability, T/C (compound 0.316 µM) was 50.3% and 38.8% and the viability, T/C (compound 1 µM) was 41.5% and 23.2%. The IC50 (curve of compound) was 181 nM and 31.7 nM.
